In ChEMBL document CHEMBL1126836, “Antiviral activity of C-alkylated purine nucleosides obtained by cross-coupling with tetraalkyltin reagents” (1993):
Converted amounts (≈) assume the structure as drawn.

Assays:
Type in all cases: functional
Settings in all cases: Homo sapiens
E6SM [1] = assay: Tested for minimum inhibitory concentration against HSV-1 (KOS strain) in E6SM cells
E6SM [2] = assay: Tested for minimum inhibitory concentration against HSV-2 ([…] strain) in E6SM cells
E6SM [3] = assay: Tested for minimum inhibitory concentration against Vaccinia virus in E6SM cells
E6SM [4] = assay: Tested for minimum inhibitory concentration against vesicular stomatitis virus (VSV) in E6SM cells.
E6SM [5] = assay: Tested for minimum cytotoxic concentration on virus-induced cytopathicity in E6SM cells
HeLa [6] = assay: Tested for minimum cytotoxic concentration on RSV (respiratory syncytial virus)-induced cytopathicity in HeLa cells
HeLa [7] = assay: Tested for minimum inhibitory concentration against RSV (respiratory syncytial virus) in HeLa cells
E6SM [8] = assay: Tested for minimum inhibitory concentration against vesicular stomatitis virus (VSV) in E6SM cells
HeLa [9] = assay: Tested for minimum inhibitory concentration against RSV in HeLa cells
E6SM [10] = assay: Tested for minimum inhibitor concentration against vesicular stomatitis virus (VSV) in E6SM cells
HeLa [11] = assay: Tested for minimum inhibitor concentration against RSV in HeLa cells
E6SM [12] = assay: Tested for minimum inhibitor concentration against vesicular stomatitis virus (VSV) in E6SM cells.

`C=Cc1nc2c(N)ncnc2n1C1CCC(CO)O1` (configuration not stated) gave an MIC (E6SM [1]) of over 100 µg/mL and an MIC (E6SM [2]) of over 20 µg/mL.
With `Cc1nc2c(N)ncnc2n1C1CCC(CO)O1` (configuration not stated) the MIC (E6SM [1]) was over 100 µg/mL and the MIC (E6SM [2]) was over 20 µg/mL.
With `Cc1ncnc2c1ncn2[C@@H]1O[C@H](CO)[C@@H](O)[C@H]1O` the MIC (E6SM [1]) was 0.4 µg/mL (≈ 1.5 µM), the MIC (E6SM [3]) was 0.04 µg/mL (≈ 0.15 µM) and the MIC (E6SM [4]) was 0.4 µg/mL (≈ 1.5 µM). The MCC (E6SM [5]) was 1 µg/mL, the MCC (HeLa [6]) was 0.8 µg/mL and the MIC (HeLa [7]) was 0.4 µg/mL (≈ 1.5 µM).
Work on `Nc1nccc2c1ncn2[C@@H]1O[C@H](CO)[C@@H](O)[C@H]1O` yielded an MIC (E6SM [1]) of over 400 µg/mL, an MIC (E6SM [3]) of 2 µg/mL (≈ 7.51 µM) and an MIC (E6SM [8]) of 0.7 µg/mL (≈ 2.63 µM). For the same molecule, the MCC (E6SM [5]) was over 400 µg/mL.
In the case of `C=Cc1nc2c(N)ncnc2n1[C@@H]1O[C@H](CO)[C@@H](O)[C@H]1O`, the MIC (E6SM [1]) is reported as 2 µg/mL (≈ 6.82 µM), the MIC (E6SM [2]) is reported as 40 µg/mL (≈ 136 µM) and the MIC (E6SM [3]) is reported as 7 µg/mL (≈ 23.9 µM). The MCC (E6SM [5]) was over 400 µg/mL, the MIC (HeLa [9]) was 4 µg/mL (≈ 13.6 µM) and the MCC (HeLa [6]) was 70 µg/mL.
With `CCc1nc(N)c2ncn(C3O[C@H](CO)[C@@H](O)[C@H]3O)c2n1` (some centres not stated) the MIC (E6SM [10]) was over 10 µg/mL, the MIC (E6SM [1]) was over 10 µg/mL and the MIC (E6SM [3]) was 7 µg/mL (≈ 23.7 µM). The MCC (E6SM [5]) was over 10 µg/mL, the MCC (HeLa [6]) was 4 µg/mL and the MIC (HeLa [11]) was 0.8 µg/mL (≈ 2.71 µM).
For `C=Cc1ncnc2c1ncn2C1O[C@H](CO)[C@@H](O)[C@H]1O` (some centres not stated), the MIC (E6SM [1]) was 2 µg/mL (≈ 7.19 µM), the MIC (E6SM [3]) was over 4 µg/mL and the MIC (E6SM [4]) was over 4 µg/mL. The MCC (E6SM [5]) was 10 µg/mL, the MIC (HeLa [9]) was over 4 µg/mL and the MCC (HeLa [6]) was 4 µg/mL.
`CCc1nc2c(N)ncnc2n1C1O[C@H](CO)[C@@H](O)[C@H]1O` (some centres not stated) showed an MIC (E6SM [1]) of over 100 µg/mL, an MIC (E6SM [3]) of 0.2 µg/mL (≈ 0.677 µM) and an MIC (E6SM [8]) of over 200 µg/mL. The MCC (E6SM [5]) was over 100 µg/mL, the MIC (HeLa [9]) was 10 µg/mL (≈ 33.9 µM) and the MCC (HeLa [6]) was 100 µg/mL.
With `Cc1nc2c(N)ncnc2n1C1O[C@H](CO)[C@@H](O)[C@H]1O` (some centres not stated) the MIC (E6SM [1]) was over 100 µg/mL, the MIC (E6SM [3]) was 0.2 µg/mL (≈ 0.711 µM) and the MIC (E6SM [8]) was over 200 µg/mL. The MCC (E6SM [5]) was over 200 µg/mL, the MIC (HeLa [9]) was 4 µg/mL (≈ 14.2 µM) and the MCC (HeLa [6]) was 20 µg/mL.
Molecule `O=c1[nH]c(=O)n([C@H]2C[C@H](O)[C@@H](CO)O2)cc1/C=C/Br` [BRIVUDINE] has an MIC (E6SM [12]) of over 400 µg/mL, an MIC (E6SM [1]) of 0.02 µg/mL (≈ 0.06 µM) and an MIC (E6SM [3]) of 0.4 µg/mL (≈ 1.2 µM). For the same molecule, the MCC (E6SM [5]) was over 400 µg/mL.
`NC(=O)c1ncn([C@@H]2O[C@H](CO)[C@@H](O)[C@H]2O)n1` [RIBAVIRIN] showed an MIC (E6SM [10]) of 20 µg/mL (≈ 81.9 µM), an MIC (E6SM [1]) of over 300 µg/mL and an MIC (E6SM [3]) of 70 µg/mL (≈ 287 µM). For the same molecule, the MCC (E6SM [5]) was over 400 µg/mL.
